This is an account of results in patent publication US6858638B2, “Substituted indazoles, compositions containing them, method of production and use” (Aventis Pharma S.A., priority 2002, dated 2005).

Common to all, as to assay type: biochemical
In one assay the target is T1, Aurora2 kinase (Homo sapiens, UniProt O14965).
T1 construct: A complete recombinant Aurora2 enzyme; His tag (N); made in house; host or cells: E. coli
T1 sequence (O14965 1-403): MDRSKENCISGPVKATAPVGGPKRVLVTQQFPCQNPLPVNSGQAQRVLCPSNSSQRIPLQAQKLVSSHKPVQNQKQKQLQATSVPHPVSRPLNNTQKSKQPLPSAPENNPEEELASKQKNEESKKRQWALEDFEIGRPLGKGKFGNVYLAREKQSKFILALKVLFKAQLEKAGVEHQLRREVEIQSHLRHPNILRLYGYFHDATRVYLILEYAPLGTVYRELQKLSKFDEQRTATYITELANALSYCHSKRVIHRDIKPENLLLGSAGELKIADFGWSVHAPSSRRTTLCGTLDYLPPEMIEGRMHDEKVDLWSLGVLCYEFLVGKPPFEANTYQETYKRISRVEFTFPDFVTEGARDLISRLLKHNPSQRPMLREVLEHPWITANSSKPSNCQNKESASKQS
The experiment in a line: Aurora2 kinase radioactivity scintillation assay using nickel chelate (NuMA substrate). As to conditions: 10 μM; read-out: Aurora2 % inhib at 10 μM. In short, it runs like this:
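His-tagged full-length Aurora2 (0.02 μM, E. coli) phosphorylating His-tagged NuMA C-terminal fragment (0.5 μM) with 1 μM ATP plus [33P]-ATP, 30 min at 37 °C, pH 7.5 Tris buffer with MgCl2. Nickel-chelate scintillation read; percent inhibition versus no-compound control.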

A further assay concerns the target T2, human KDR enzyme (Homo sapiens, UniProt P35968).
T2 construct: The cytoplasmic domain of the human KDR enzyme; GST; made in house; host or cells: SF21 insect cells (baculovirus)
Kind of assay: KDR substrate (PLCγ) phosphorylation, scintillation assay. Particulars: 10 μM; for inhibition at 10 µM: read-out: KDR % inhib at 10 μM. In short, it runs like this:
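GST-fused human KDR cytoplasmic domain from SF21 cells (about 60% pure, 100 ng) phosphorylated 2 μg of GST-PLCγ SH2-SH3 fragment. The trigger solution held γ33P-ATP with 2 μM cold ATP, in MOPS buffer pH 7.2 with Mg2+, Mn2+, vanadate and NaF. Reactions ran 1 h at 37 °C, were stopped with EDTA and counted by scintillation; results are % inhibition versus the no-compound control.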

The target of the next assay is T3, human FAK (Homo sapiens, UniProt Q05397).
T3 construct: The complete cDNA of human FAK; made in house; host or cells: baculovirus expression system (vector pFastBac HTc)
T3 sequence (Q05397 whole entry): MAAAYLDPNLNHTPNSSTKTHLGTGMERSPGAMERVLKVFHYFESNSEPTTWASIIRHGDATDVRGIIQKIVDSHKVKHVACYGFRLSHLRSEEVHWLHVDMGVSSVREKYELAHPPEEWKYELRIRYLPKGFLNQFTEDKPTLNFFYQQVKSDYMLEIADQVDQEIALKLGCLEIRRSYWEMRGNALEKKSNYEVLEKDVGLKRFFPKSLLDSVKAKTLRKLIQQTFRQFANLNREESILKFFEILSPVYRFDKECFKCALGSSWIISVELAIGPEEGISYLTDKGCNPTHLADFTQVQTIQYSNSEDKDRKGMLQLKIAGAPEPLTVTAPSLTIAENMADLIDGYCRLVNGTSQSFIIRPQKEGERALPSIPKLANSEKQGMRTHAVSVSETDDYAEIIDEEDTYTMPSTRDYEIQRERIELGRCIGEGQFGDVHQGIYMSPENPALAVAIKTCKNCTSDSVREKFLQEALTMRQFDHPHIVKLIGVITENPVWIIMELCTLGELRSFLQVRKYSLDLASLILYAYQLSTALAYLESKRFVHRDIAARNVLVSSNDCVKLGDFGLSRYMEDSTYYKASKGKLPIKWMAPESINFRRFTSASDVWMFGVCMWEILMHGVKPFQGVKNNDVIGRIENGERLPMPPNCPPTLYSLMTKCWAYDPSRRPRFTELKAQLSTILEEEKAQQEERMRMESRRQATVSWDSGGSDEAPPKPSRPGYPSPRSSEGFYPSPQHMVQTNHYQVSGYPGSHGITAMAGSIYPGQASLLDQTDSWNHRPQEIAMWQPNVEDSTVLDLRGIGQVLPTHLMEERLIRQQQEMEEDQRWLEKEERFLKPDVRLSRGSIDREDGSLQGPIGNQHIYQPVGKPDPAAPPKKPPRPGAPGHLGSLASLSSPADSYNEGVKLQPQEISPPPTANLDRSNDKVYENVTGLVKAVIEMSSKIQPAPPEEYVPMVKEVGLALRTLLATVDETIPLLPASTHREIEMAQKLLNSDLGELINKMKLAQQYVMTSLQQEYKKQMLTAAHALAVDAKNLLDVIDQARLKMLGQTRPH
Kind of assay: FAK autophosphorylation inhibition, time resolved fluorescence (HTRF) assay. Particulars: 10 μM (values without asterisk); read-out: FAK % inhib at 10 μM. The method in brief:
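His-tagged full-length human FAK from baculovirus (6.6 µg/ml) self-phosphorylates with 15 µM ATP in HEPES pH 7.2, MgCl2, vanadate, 1 h at 37 °C. HTRF detection (Eu-anti-phosphotyrosine / XL665-anti-His), 665/620 nm ratio; % inhibition vs untreated control, duplicate mean.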

The target in assay [1] is T4, human IGF1R cytoplasmic domain (Homo sapiens, UniProt P08069).
T4 construct: The human IGF1R cytoplasmic domain was cloned; made in house; host or cells: SF21 insect cells (baculovirus)
T4 sequence (P08069 960-1367 limits assumed): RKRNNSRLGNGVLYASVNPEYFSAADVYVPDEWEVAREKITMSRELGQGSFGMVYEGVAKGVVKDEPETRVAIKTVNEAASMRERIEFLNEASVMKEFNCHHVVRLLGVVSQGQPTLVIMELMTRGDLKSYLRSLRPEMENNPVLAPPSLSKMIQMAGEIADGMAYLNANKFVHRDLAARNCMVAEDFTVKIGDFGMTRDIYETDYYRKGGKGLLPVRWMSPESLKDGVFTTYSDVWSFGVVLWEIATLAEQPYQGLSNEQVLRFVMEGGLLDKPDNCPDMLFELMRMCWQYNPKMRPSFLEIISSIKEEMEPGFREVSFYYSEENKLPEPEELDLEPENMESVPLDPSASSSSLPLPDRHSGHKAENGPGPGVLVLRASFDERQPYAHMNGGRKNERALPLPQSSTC
The experiment in a line: IGF1R autophosphorylation inhibition, time resolved fluorescence (HTRF) assay. As to conditions: 10 μM; read-out: IGF1R % inhib at 10 μM. How it is done:
The inhibitory activity of the compounds on IGF1R is determined by measuring the inhibition of the autophosphorylation of the enzyme using a time resolved fluorescence (HTRF) assay.
The human IGF1R cytoplasmic domain was cloned, as a fusion with glutathione S-transferase (GST), into the baculovirus expression vector pFastBac-GST. The protein was expressed in SF21 cells and purified to approximately 80% homogeneity.
The kinase activity was determined by incubating the enzyme with various concentrations of test compound in a 50 mM Hepes buffer, pH 7.5, containing 5 mM MnCl2, 50 mM NaCl, 3% glycerol, 0.025% Tween […] of ATP. The enzyme reaction is stopped by adding 100 mM Hepes buffer, pH 7.0, containing 0.4 M KF, 133 mM EDTA and 0.1% BSA containing an anti-GST antibody labeled with XL665 and an antiphosphotyrosine antibody conjugated to europium cryptate (Eu-K). The characteristics of the two fluorophores, XL-665 and Eu-K, are available in G. Mathis et al., Anticancer Research, 1997, 17, pages 3011-3014. The transfer of energy from the excited europium cryptate to the acceptor XL665 is proportional to the degree of autophosphorylation of IGF1R. The long-lived signal specific for XL-665 is measured in a Victor analyzer plate counter (Perkin-elmer). The inhibition of the IGF1R autophosphorylation activity with compounds of the invention is expressed as percentage inhibition compared to a control whose activity is measured in the absence of test compound.
A general note: In TR-FRET formats the signal depends on donor and acceptor labels being close together.

T2 sequence (P35968 786-1356 limits assumed): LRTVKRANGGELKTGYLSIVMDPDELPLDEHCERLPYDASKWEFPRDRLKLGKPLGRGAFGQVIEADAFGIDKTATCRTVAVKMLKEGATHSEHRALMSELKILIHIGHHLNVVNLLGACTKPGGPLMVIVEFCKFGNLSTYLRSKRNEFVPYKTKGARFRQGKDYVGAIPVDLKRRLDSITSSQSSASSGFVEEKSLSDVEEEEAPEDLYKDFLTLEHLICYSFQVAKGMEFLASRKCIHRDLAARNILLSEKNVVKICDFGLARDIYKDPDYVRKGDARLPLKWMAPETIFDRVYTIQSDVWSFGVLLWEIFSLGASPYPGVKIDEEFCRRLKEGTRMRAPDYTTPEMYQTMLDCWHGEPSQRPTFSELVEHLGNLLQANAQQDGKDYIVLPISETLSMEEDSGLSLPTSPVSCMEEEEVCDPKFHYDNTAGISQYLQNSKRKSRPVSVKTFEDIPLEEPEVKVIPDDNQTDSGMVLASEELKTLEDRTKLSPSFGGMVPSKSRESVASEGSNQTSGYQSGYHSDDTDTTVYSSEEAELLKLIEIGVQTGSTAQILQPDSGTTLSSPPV

Turning to `COc1cccc(-c2n[nH]c3ccc(NS(=O)(=O)c4ccccc4S(C)(=O)=O)cc23)c1` [Example 178, 2-Methanesulfonyl-N-[3-(3-methoxyphenyl)-1H-indazol-5-yl]benzenesulfonamide], the inhibition at 10 µM on Aurora2 kinase was 90%; on human KDR enzyme, 44%; on human FAK, 95%; in assay [1], 67%.
The corresponding values for `CS(=O)(=O)c1ccccc1S(=O)(=O)Nc1ccc2[nH]nc(-c3ccc(O)cc3)c2c1` [Example 202, N-[3-(4-Hydroxyphenyl)-1H-indazol-5-yl]-2-methanesulfonyl-benzenesulfonamide] are 96%, 79%, 97% and 83%.
On to `CS(=O)(=O)c1ccccc1S(=O)(=O)Nc1ccc2[nH]nc(-c3cc4ccccc4o3)c2c1` [Example 180, N-(3-Benzofuran-2-yl-1H-indazol-5-yl)-2-methanesulfonyl-benzenesulfonamide], for which the inhibition at 10 µM came to 99% at Aurora2 kinase, 29% on human KDR enzyme, 95% on human FAK and 93% in assay [1].
The matching figures for `Cc1ccc(-c2n[nH]c3ccc(NS(=O)(=O)c4ccccc4S(C)(=O)=O)cc23)cc1C` [Example 195, 2-Methanesulfonyl-N-[3-(3,4-dimethylphenyl)-1H-indazol-5-yl]benzenesulfonamide]: 91%, 47%, 91% and 75%.
The corresponding values for `CS(=O)(=O)c1ccccc1S(=O)(=O)Nc1ccc2[nH]nc(-c3ccc(Cl)c(Cl)c3)c2c1` [Example 205, N-[3-(3,4-Dichlorophenyl)-1H-indazol-5-yl]-2-methanesulfonyl-benzenesulfonamide] are 86%, 42%, 90% and 66%.
The corresponding values for `CS(=O)(=O)c1ccccc1S(=O)(=O)Nc1ccc2[nH]nc(-c3ccc(F)cc3F)c2c1` [Example 217, N-[3-(2,4-Difluorophenyl)-1H-indazol-5-yl]-2-methanesulfonyl-benzenesulfonamide] are 92%, 70%, 95% and 83%.
As for `CS(=O)(=O)c1ccccc1S(=O)(=O)Nc1ccc2[nH]nc(-c3cc(C(F)(F)F)cc(C(F)(F)F)c3)c2c1` [Example 101, N-[3-(3,5-bistrifluoromethylphenyl)-1H-indazol-5-yl]-2-methylsulfonylbenzenesulfonamide], the inhibition at 10 µM at Aurora2 kinase is 30%; on human KDR enzyme, 39%; at human FAK, 84%; in assay [1], 28%.
The corresponding values for `CS(=O)(=O)c1ccccc1S(=O)(=O)Nc1ccc2[nH]nc(-c3ccc(OCc4ccccc4)c(F)c3)c2c1` [Example 194, N-[3-(4-Benzyloxy-3-fluoro-phenyl)-1H-indazol-5-yl]-2-methanesulfonyl-benzenesulfonamide] are 58%, 39%, 44% and 41%.
The matching figures for `Cc1ccc(-c2n[nH]c3ccc(NS(=O)(=O)c4ccccc4S(C)(=O)=O)cc23)cc1N` [Example 204, N-[3-(3-Amino-4-methyl-phenyl)-1H-indazol-5-yl]-2-methanesulfonyl-benzenesulfonamide]: 95%, 67%, 97% and 78%.
The matching figures for `CS(=O)(=O)c1ccccc1S(=O)(=O)Nc1ccc2[nH]nc(C(=O)NC3CCCCC3)c2c1` [Example 29, N-Cyclohexyl-5-(2-methylsulfonylbenzenesulfonylamino)-1H-indazole-3-carboxamide]: 80%, 8%, 0% and 96%.
Take `CS(=O)(=O)c1ccccc1S(=O)(=O)Nc1ccc2[nH]nc(-c3ccc(F)c(Cl)c3)c2c1` [Example 167, N-[3-(3-Chloro-4-fluoro-phenyl)-1H-indazol-5-yl]-2-methanesulfonyl-benzenesulfonamide]: the inhibition at 10 µM at Aurora2 kinase amounted to 90%; at human KDR enzyme, 44%; on human FAK it was 91%; in assay [1], 77%.
Regarding `Cc1cc(C)c(S(=O)(=O)Nc2ccc3[nH]nc(-c4ccccc4)c3c2)c(C)c1` [Example 115, 2,4,6-Trimethyl-N-(3-phenyl-1H-indazol-5-yl)-benzenesulfonamide], the inhibition at 10 µM stood at 70% at Aurora2 kinase, 78% at human KDR enzyme, 31% on human FAK and 79% in assay [1].
The corresponding values for `CS(=O)(=O)c1ccccc1S(=O)(=O)Nc1ccc2[nH]nc(-c3ccccc3N)c2c1` [Example 49, N-[3-(2-Aminophenyl)-1H-indazol-5-yl]-2-methylsulfonylbenzenesulfonamide] are 17%, 18%, 40% and 50%.
Consider `COc1ccccc1-c1n[nH]c2ccc(NS(=O)(=O)c3ccccc3S(C)(=O)=O)cc12` [Example 183, 2-Methanesulfonyl-N-[3-(2-methoxyphenyl)-1H-indazol-5-yl]benzenesulfonamide], for which the inhibition at 10 µM was 90% on Aurora2 kinase, 37% at human KDR enzyme, 82% at human FAK and 50% in assay [1].
For `CS(=O)(=O)c1ccccc1S(=O)(=O)Nc1ccc2[nH]nc(-c3cccs3)c2c1` [Example 174, 2-Methanesulfonyl-N-(3-thiophen-2-yl-1H-indazol-5-yl)-benzenesulfonamide], the inhibition at 10 µM worked out at 93% at Aurora2 kinase, 100% at human FAK and 65% in assay [1]. In addition, the “KDR % inhib at 10 μM” value on human KDR enzyme came to 53%.
Turning to `O=C(NCc1ccc(S(=O)(=O)Nc2ccc3[nH]nc(-c4ccccc4)c3c2)s1)c1ccccc1` [Example 140, N-[5-(3-Phenyl-1H-indazol-5-ylsulfamoyl)thiophen-2-ylmethyl]benzamide], the inhibition at 10 µM at Aurora2 kinase turned out to be 71%; at human KDR enzyme, 70%; at human FAK, 6%; in assay [1], 40%.
The corresponding values for `O=S(=O)(Nc1ccc2[nH]nc(-c3ccccc3)c2c1)c1cccc2nonc12` [Example 149, N-(3-Phenyl-1H-indazol-5-yl)-benzo[1,2,5]oxadiazole-4-sulfonamide] are 100%, 57%, 78% and 67%.
